Measured values taken from the Deep4Chem optical property database.
Values belong to the compound of their own block, whether it stands above or below them.

Test: photoluminescence quantum yield (fraction); solvent given as SMILES

SMILES: N#Cc1ccc(-n2cccc2)cc1
photoluminescence quantum yield (in C1CCOC1): 0.024 | photoluminescence quantum yield (in CC#N): 0.024 | photoluminescence quantum yield (in CCCCCC): 0.077 | photoluminescence quantum yield (in CCOCC): 0.023 | photoluminescence quantum yield (in ClCCl): 0.022

SMILES: CCN1c2ccc(/C=N/Nc3ccccn3)cc2Sc2cc(/C=N/Nc3ccccn3)ccc21
photoluminescence quantum yield (in C1CCOC1): 0.15 | photoluminescence quantum yield (in CS(C)=O): 0.19 | photoluminescence quantum yield (in Cc1ccccc1): 0.14 | photoluminescence quantum yield (in ClCCl): 0.37

SMILES: N#Cc1ccc(-c2cn3cc(-c4ccccc4)c[n+]3[n-]2)cc1
photoluminescence quantum yield (in ClCCl): 0.48

SMILES: CCN1C(=O)C(C2C(=O)c3c4ccccc4cc4cc5ccccc5c2c34)C(=O)N(CC)C1=S (stereo unspecified)
photoluminescence quantum yield (in C1CCOC1): 0.205 | photoluminescence quantum yield (in CCCCCC): 0.316 | photoluminescence quantum yield (in Cc1ccccc1): 0.052 | photoluminescence quantum yield (in ClCCl): 0.237

SMILES: CCCCOC(=O)c1cc(Oc2ccc(C(C)(C)C)cc2)c2c3c(Cl)cc4c5c(cc(Cl)c(c6c(Oc7ccc(C(C)(C)C)cc7)cc(C(=O)OCCCC)c1c26)c53)C(=O)N(c1c(C(C)C)cccc1C(C)C)C4=O
photoluminescence quantum yield (in Cc1ccccc1): 0.79

SMILES: CC1(C)c2ccccc2N(c2ccc(-c3nnc(-c4cc(-c5ccccc5)c(-c5ccccc5)c(-c5ccccc5)c4-c4ccccc4)o3)cc2)c2ccccc21
photoluminescence quantum yield (in Cc1ccccc1): 0.235 | photoluminescence quantum yield (in c1ccc(-n2c(-c3c(-n4c5ccccc5c5ccccc54)cccc3-n3c4ccccc4c4ccccc43)nc3ccccc32)cc1): 0.359

SMILES: C(=C(c1ccccc1)c1ccccc1)c1ccc(-c2cc(-c3ccc(C=C(c4ccccc4)c4ccccc4)cc3)cc(-c3ccc(C=C(c4ccccc4)c4ccccc4)cc3)c2)cc1
photoluminescence quantum yield (in C1CCOC1): 0.0045

SMILES: COc1ccc(C2=CC(c3ccc4ccccc4c3)=[O+][B-](C(C)=O)(C(C)=O)O2)cc1
photoluminescence quantum yield (in CC#N): 0.6 | photoluminescence quantum yield (in ClC(Cl)(Cl)Cl): 0.8

SMILES: CN(C)c1ccc(C#Cc2ccccc2)cc1
photoluminescence quantum yield (in C1CCCCC1): 0.35 | photoluminescence quantum yield (in C1CCOC1): 0.244 | photoluminescence quantum yield (in C1COCCO1): 0.32 | photoluminescence quantum yield (in CC1CCCO1): 0.314 | photoluminescence quantum yield (in CC#N): 0.102 | photoluminescence quantum yield (in CC(C)=O): 0.103 | photoluminescence quantum yield (in CC(C)CC(C)(C)C): 0.28 | photoluminescence quantum yield (in CC(C)O): 0.011 | photoluminescence quantum yield (in CCCCCCCCCCCCCCCC): 0.372 | photoluminescence quantum yield (in CCCCCCCCCCCCCCCCCl): 0.409 | photoluminescence quantum yield (in CCOC(C)=O): 0.25 | photoluminescence quantum yield (in CCOCC): 0.11 | photoluminescence quantum yield (in CN(C)C=O): 0.3 | photoluminescence quantum yield (in CO): 0.01 | photoluminescence quantum yield (in CS(C)=O): 0.29 | photoluminescence quantum yield (in Cc1ccccc1): 0.39

SMILES: FC(F)(F)c1ccccc1B1c2ccccc2N(c2ccccc2)c2ccccc21
photoluminescence quantum yield (in ClCCl): 0.79

SMILES: Cc1ccc(C2=C3C=CC(c4ccccc4)=[N+]3[B-](F)(F)n3c2ccc3-c2ccccc2)cc1
photoluminescence quantum yield (in C1CCCCC1): 0.31 | photoluminescence quantum yield (in C1CCOC1): 0.22 | photoluminescence quantum yield (in C1COCCO1): 0.25 | photoluminescence quantum yield (in CCOC(C)=O): 0.2 | photoluminescence quantum yield (in CO): 0.21 | photoluminescence quantum yield (in Cc1ccccc1): 0.42 | photoluminescence quantum yield (in ClC(Cl)Cl): 0.31

SMILES: CC1(C)C2=[N+](CCCCCC(=O)NCCCNC(=O)CCCCCN3/C(=C/C=C/C=C/C=C/2)C(C)(C)c2cc(S(=O)(=O)[O-])ccc23)c2ccc(S(=O)(=O)[O-])cc21
photoluminescence quantum yield (in CO): 0.58 | photoluminescence quantum yield (in O): 0.36

SMILES: C[N+]1=C(/C=C/C=C2/N(CCCS(=O)(=O)[O-])c3ccccc3C2(C)C)C(C)(C)c2ccccc21
photoluminescence quantum yield (in CS(C)=O): 0.1

SMILES: CCOC(=O)c1ccc2c(c1)sc1c3ccc(C(=O)OCC)cc3sc21
photoluminescence quantum yield (in CCCO): 0.083

SMILES: Cc1cc(C)c(B(c2ccccc2-n2c3ccccc3c3ccccc32)c2c(C)cc(C)cc2C)c(C)c1
photoluminescence quantum yield (in Cc1ccccc1): 0.79

SMILES: CN(C)c1ccc2[c](c1)[Sn]([CH3])([CH3])[C]1=CC(=[N+](C)C)C=CC1=C2
photoluminescence quantum yield (in O): 0.43

SMILES: Cc1cccc(Nc2ccccc2C(=O)O)c1C
photoluminescence quantum yield (in C1CCCCC1): 0.0049 | photoluminescence quantum yield (in C1CCOC1): 0.0074 | photoluminescence quantum yield (in C1COCCO1): 0.0035 | photoluminescence quantum yield (in CC#N): 0.0013 | photoluminescence quantum yield (in CCOC(C)=O): 0.0032 | photoluminescence quantum yield (in CN(C)C=O): 0.0013

SMILES: CC1(C)CC(/C=C/c2ccc(-n3c4ccccc4c4ccccc43)cc2)=CC(=C(C#N)C#N)C1
photoluminescence quantum yield (in CCO): 0.005

SMILES: CC(C)[Si]1(C(C)C)c2cc(C=O)ccc2-c2ccc(N(C)C)cc21
photoluminescence quantum yield (in C1CCCCC1): 0.08 | photoluminescence quantum yield (in CC#N): 0.81 | photoluminescence quantum yield (in CCO): 0.4 | photoluminescence quantum yield (in CCOCC): 0.79 | photoluminescence quantum yield (in CS(C)=O): 0.57 | photoluminescence quantum yield (in ClCCl): 0.71 | photoluminescence quantum yield (in c1ccccc1): 0.75

SMILES: CC(C)[Si](C#Cc1c2ccc(C(C)(C)C)cc2c(C#Cc2c3ccc(C(C)(C)C)cc3c(C#C[Si](C(C)C)(C(C)C)C(C)C)c3ccc(C(C)(C)C)cc23)c2ccc(C(C)(C)C)cc12)(C(C)C)C(C)C
photoluminescence quantum yield (in Cc1ccccc1): 0.02

SMILES: COc1cc(/C=C/c2cc(OC)c(-c3nc(-c4ccccc4)c(-c4ccccc4)[nH]3)cc2OC)c(OC)cc1/C=C/c1cc(OC)c(-c2nc(-c3ccccc3)c(-c3ccccc3)[nH]2)cc1OC
photoluminescence quantum yield (in C1CCOC1): 0.54 | photoluminescence quantum yield (in CC#N): 0.24 | photoluminescence quantum yield (in CN(C)C=O): 0.42 | photoluminescence quantum yield (in Cc1ccccc1): 0.63

Continued, values first:

photoluminescence quantum yield (in CN(C)C=O): 0.88
SMILES: c1ccc2[nH]c(-c3ccc(-c4ccc(-c5ccc(-c6nc7ccccc7[nH]6)cc5)cc4)cc3)nc2c1

photoluminescence quantum yield (in ClC(Cl)Cl): 0.1
SMILES: CC(C)[Si](C#Cc1c2c(=O)c3ccccc3c2c(C#C[Si](C(C)C)(C(C)C)C(C)C)c2c(=O)c3ccccc3c12)(C(C)C)C(C)C

photoluminescence quantum yield (in ClC(Cl)Cl): 0.099
SMILES: FC(F)(F)c1ccc2oc3nc4oc5ccc(N(c6ccccc6)c6ccccc6)cc5c4cc3c2c1

photoluminescence quantum yield (in C1CCCCC1): 0.03 | photoluminescence quantum yield (in C1CCOC1): 0.44 | photoluminescence quantum yield (in C1COCCO1): 0.28 | photoluminescence quantum yield (in CC#N): 0.28 | photoluminescence quantum yield (in CCCCCC): 0.03 | photoluminescence quantum yield (in CO): 0.03 | photoluminescence quantum yield (in ClC(Cl)Cl): 0.14
SMILES: F[B-]1(F)n2ccnc2-c2cccc[n+]21

photoluminescence quantum yield (in CC#N): 0.03 | photoluminescence quantum yield (in CCCCCC): 0.03 | photoluminescence quantum yield (in CCOC(C)=O): 0.03 | photoluminescence quantum yield (in CO): 0.02 | photoluminescence quantum yield (in ClCCl): 0.04
SMILES: CCCSc1ccc2n1[B-](F)(F)[N+]1=CC=CC1=C2c1ccccc1

photoluminescence quantum yield (in CS(C)=O): 0.66
SMILES: CCCCCCCCn1c2ccccc2c(=O)c2ccccc21

photoluminescence quantum yield (in C1CCOC1): 0.56
SMILES: CCC1(CC)c2ccccc2-c2c1c1c(c3c2C(CC)(CC)c2cc(B(c4c(C)cc(C)cc4C)c4c(C)cc(C)cc4C)ccc2-3)C(CC)(CC)c2ccccc2-1

photoluminescence quantum yield (in ClCCl): 0.16
SMILES: [O-][n+]1c(/C=C/c2ccccc2)nc(Nc2ccccc2)c2c1CCCC2

photoluminescence quantum yield (in O): 0.093
SMILES: CC(=O)c1ccn2c3c(c(-c4cc[n+](C)cc4)c2c1)CN(C)C3=O

photoluminescence quantum yield (in CO): 0.84
SMILES: C#CCOc1ccc(/C=C/C2=[N+]3C(=C(c4ccc(N(C)CC)cc4)c4c(C)cc(C)n4[B-]3(F)F)C(C)=C2)cc1

photoluminescence quantum yield (in ClCCl): 0.15
SMILES: O=c1c2cccc3cccc(c32)c2nc3c4ccccc4c4ccccc4c3n12

photoluminescence quantum yield (in CC(C)O): 0.17
SMILES: CC[n+]1c(C=C2C(=O)C(C=C3Sc4cc(Cl)ccc4N3C)=C2[O-])[se]c2ccccc21

photoluminescence quantum yield (in C1CCCCC1): 0.28 | photoluminescence quantum yield (in C1CCOC1): 0.39 | photoluminescence quantum yield (in C1COCCO1): 0.44 | photoluminescence quantum yield (in CC#N): 0.49 | photoluminescence quantum yield (in CC(C)O): 0.39 | photoluminescence quantum yield (in CCCCCC): 0.25 | photoluminescence quantum yield (in CN(C)C=O): 0.34 | photoluminescence quantum yield (in CO): 0.57 | photoluminescence quantum yield (in c1ccccc1): 0.28
SMILES: CC1(C)Oc2c(c3nc4ccccc4nc3c3ccccc23)CC1Br (stereo unspecified)

photoluminescence quantum yield (in CS(C)=O): 0.291
SMILES: CCCCN1\C(=C/C=C/C=C/C2=[N+](CCCC)c3ccc4ccccc4c3C2(C)C)C(C)(C)c2c1ccc1ccccc21

photoluminescence quantum yield (in CS(C)=O): 0.42
SMILES: Cc1cccn2c1cc1c3ccccc3nc(-c3ccco3)c12

photoluminescence quantum yield (in CC#N): 0.24
SMILES: COc1cc2cc(/C=C/c3ccc(/C=C/c4ccc(/C=C(\C#N)C(=O)O)cc4)cc3)c(=O)oc2cc1OC

photoluminescence quantum yield (in CCO): 0.43
SMILES: CC1CC=C(c2ccc(-c3ccc(C=O)s3)s2)CC1 (stereo unspecified)

photoluminescence quantum yield (in C1CCCCC1): 0.12 | photoluminescence quantum yield (in CC#N): 0.5
SMILES: C=Cc1cc(OC)cc(OC)c1

photoluminescence quantum yield (in ClCCl): 0.48
SMILES: COc1ccc(C2=C(c3ccc(OC)cc3)c3cccc4c3c(cc3nc5ccccc5nc34)O2)cc1

photoluminescence quantum yield (in C1CCCCC1): 0.635 | photoluminescence quantum yield (in CCOC(C)=O): 0.634 | photoluminescence quantum yield (in CN(C)C=O): 0.51 | photoluminescence quantum yield (in CO): 0.396 | photoluminescence quantum yield (in ClCCl): 0.653
SMILES: CCN(CC)c1ccc2c(c1)oc(=O)c1c(C)nc3c(c(-c4ccccc4)nn3-c3ccccc3)c12

photoluminescence quantum yield (in CC#N): 0.62
SMILES: COc1ccc(-c2nc(-c3ccc(-c4nc(-c5ccc(OC)cc5)c(-c5ccc(OC)cc5)[nH]4)s3)[nH]c2-c2ccc(OC)cc2)cc1

photoluminescence quantum yield (in ClCCl): 0.2
SMILES: F[B-]12OC(c3ccccc3)=Nc3cccc([n+]31)N=C(c1ccccc1)O2

photoluminescence quantum yield (in ClC(Cl)Cl): 0.672
SMILES: CCC1=C(C)C2C(c3ccc(-c4ccc(-c5nc6c7ccccc7c7ccccc7c6n5-c5ccc(C(C)(C)C)cc5)cc4)cc3)c3c(C)c(CC)c(C)n3[B-](F)(F)[N+]2=C1C (stereo unspecified)

photoluminescence quantum yield (in C1CCOC1): 0.55 | photoluminescence quantum yield (in CC#N): 0.49 | photoluminescence quantum yield (in CCO): 0.46 | photoluminescence quantum yield (in CO): 0.45 | photoluminescence quantum yield (in ClCCl): 0.53
SMILES: O=C1C2=C(O[B-](F)(F)[n+]3c2ccc2ccccc23)c2ccc(N3CCOCC3)c3cccc1c23

photoluminescence quantum yield (in ClCCl): 0.86
SMILES: O=S1(=O)c2ccc(-c3ccc(-n4c5ccccc5c5ccccc54)cc3)cc2C2(c3ccccc3-c3ccccc32)c2cc(-c3ccc(-n4c5ccccc5c5ccccc54)cc3)ccc21

photoluminescence quantum yield (in C1CCOC1): 0.3
SMILES: Cc1ccc(-c2ccc(-c3ccc(-c4ccc(C)cc4)cc3/C(=C(/c3ccccc3)c3cc(-c4ccc(C)cc4)ccc3-c3ccc(-c4ccc(C)cc4)cc3)c3ccccc3)cc2)cc1

photoluminescence quantum yield (in CCCCCC): 0.51
SMILES: CC(C)[Si](C#Cc1c2ccccc2c(C#C[Si](C(C)C)(C(C)C)C(C)C)c2nc3c(ccc4ccccc43)nc12)(C(C)C)C(C)C

photoluminescence quantum yield (in ClCCl): 0.35
SMILES: CCCCN(CCCC)c1ccc2c#cc3cc4c#cc5ccc(C(F)(F)F)cc5c#cc#cc5cc(C(F)(F)F)ccc5c#cc4cc3c#cc3ccc(N(CCCC)CCCC)cc3c#cc#cc2c1

photoluminescence quantum yield (in CCO): 0.47
SMILES: CCOC(=O)c1cc(C(=O)OCC)c2cc(NC)ccc2n1

photoluminescence quantum yield (in ClCCl): 0.24
SMILES: CC(C)c1cccc(C(C)C)c1N1C(=O)c2ccc3c(-c4ccccc4)c4c5ccc6c7c(ccc(c(-c8ccccc8)c4c4ccc(c2c34)C1=O)c75)C(=O)N(c1c(C(C)C)cccc1C(C)C)C6=O
